Source: patent US6995167B2 (priority 1999, dated 2006)

Biological target: α7 nAChR subtype (Rattus norvegicus, UniProt Q05941)
Format: binding
Conditions: read-out: KD of radioligand

Chain of α7 nAChR subtype (Q05941 23-502 limits assumed): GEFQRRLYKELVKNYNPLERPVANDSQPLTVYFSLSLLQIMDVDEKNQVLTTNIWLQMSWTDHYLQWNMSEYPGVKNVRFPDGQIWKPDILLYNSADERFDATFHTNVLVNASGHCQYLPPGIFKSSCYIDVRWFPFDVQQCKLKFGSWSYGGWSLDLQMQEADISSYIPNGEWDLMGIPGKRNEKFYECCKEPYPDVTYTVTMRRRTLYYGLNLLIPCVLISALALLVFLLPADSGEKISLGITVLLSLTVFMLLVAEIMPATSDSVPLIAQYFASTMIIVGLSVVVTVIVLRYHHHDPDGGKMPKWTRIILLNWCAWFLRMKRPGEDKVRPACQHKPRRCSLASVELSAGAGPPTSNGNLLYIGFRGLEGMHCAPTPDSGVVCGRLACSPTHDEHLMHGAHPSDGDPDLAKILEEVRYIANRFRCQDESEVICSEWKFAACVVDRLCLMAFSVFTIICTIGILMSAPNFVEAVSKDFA

Question: With ^125I-α-Bungarotoxin [^125I-α-BTX] as the substance, how does the Kd read?
Answer: The Kd was 1.67 nM.
